Measurements from patent publication US10604742B2, “Adsorptive membranes for trapping viruses” (Wisconsin Alumni Research Foundation, priority 2006, dated 2020).
Like-named read-outs stand apart in the source and are kept apart here.

Columns and labels:
neutral virus φX174 [1] = assay: Function test 2: LRV for φX174 using functionalized membranes in flow mode, TE buffer pH 7.5; assay type: binding, bacteriophage φX174; details: for φX174 LRV: TE buffer pH 7.5
Description: In these examples, the neutral virus φX174 is used because is one of five model non-pathogenic bacteriophage viruses commonly used in filtration studies to represent the gamut of physical properties of potential adventitious viruses of danger to humans (e.g., size, pI, presence or absence of a membrane). In short, the φX174 virus is an art-recognized virus for modeling viral clearance of dangerous pathogens.
Function test 2 measured the LRV for the neutral virus φX174 using the functionalized membranes in flow mode with TE buffer (10 mM Tris, 1 mM EDTA, pH 7.5) with and without added NaCl. Each ligand was immobilized onto regenerated cellulose membranes having 0.45 μm pore diameter using allyl glycidyl ether. The allylated membrane was then brominated. Lastly the ligand was coupled to the membrane via the primary amine on the ligand.

neutral virus φX174 [2] = assay: Example 3: φX174 clearance by AGM membrane in presence of basic protein ribonuclease A (FIG. 10); assay type: binding, bacteriophage φX174; details: 0.5 g/L ribonuclease A, TE buffer pH 7.5, with and without added NaCl
Experimental: FIG. 10 is a graph depicting the performance of a virus-trapping membrane containing the immobilized ligand agmatine to remove a neutral virus (φX174) from a solution comprising a basic protein (0.5 g/L ribonuclease) and different concentrations of salt (□=0 mM NaCl; ▴=50 mM NaCl; ▪=150 mM NaCl).
AGM, for example, meets these requirements. […] According to the methods of Example 2, a disposable, micro-porous, regenerated-cellulose virus-trapping membrane was fabricated containing the ligand AGM immobilized on the membrane. The basic protein ribonuclease A (pI˜9.5) was used as a mAb surrogate. A feed solution comprising the neutral virus φX174 and 0.5 g/L of the basic protein ribonuclease A, both dissolved in TE buffer (10 mM Tris, 1 mM EDTA, pH 7.5), with and without added NaCl, was loaded into the membrane. Viral clearance was not reduced by the presence of the basic protein.

[3] = cited from earlier work
[4] = molecular target: bovine serum albumin (BSA) (Bos taurus, UniProt P02769); assay: Function test 1: static BSA binding capacity of ligand-functionalized regenerated cellulose membranes (BCA method); details: 20 mM piperazine, pH 6.0
Experimental: These ligands were evaluated using two different function tests. In the first function test, bovine serum albumin (BSA) in 20 mM piperazine, pH 6.0, with and without added NaCl, was incubated with a functionalized regenerated cellulose membrane. Bound BSA was then measured using the bicinchoninic acid (BCA) colorimetric method. Function test 1 measured the static protein binding capacity of the membranes under conditions where the pH was close to the isoelectric point of the protein (pI of BSA=5.1). In this function test, the protein had only a weak charge and was sensitive to added salt. This first function test was designed to mimic the binding of a neutral virus where the charge is weak.
Each ligand was immobilized onto regenerated cellulose membranes having 0.45 μm pore diameter using allyl glycidyl ether. The allylated membrane was then brominated. Lastly the ligand was coupled to the membrane via the primary amine on the ligand.

[5] = high-salt buffer (23 mS/cm); cited from earlier work
φX174 = details: cited from earlier work

Sequence of bovine serum albumin (BSA) (P02769 25-607): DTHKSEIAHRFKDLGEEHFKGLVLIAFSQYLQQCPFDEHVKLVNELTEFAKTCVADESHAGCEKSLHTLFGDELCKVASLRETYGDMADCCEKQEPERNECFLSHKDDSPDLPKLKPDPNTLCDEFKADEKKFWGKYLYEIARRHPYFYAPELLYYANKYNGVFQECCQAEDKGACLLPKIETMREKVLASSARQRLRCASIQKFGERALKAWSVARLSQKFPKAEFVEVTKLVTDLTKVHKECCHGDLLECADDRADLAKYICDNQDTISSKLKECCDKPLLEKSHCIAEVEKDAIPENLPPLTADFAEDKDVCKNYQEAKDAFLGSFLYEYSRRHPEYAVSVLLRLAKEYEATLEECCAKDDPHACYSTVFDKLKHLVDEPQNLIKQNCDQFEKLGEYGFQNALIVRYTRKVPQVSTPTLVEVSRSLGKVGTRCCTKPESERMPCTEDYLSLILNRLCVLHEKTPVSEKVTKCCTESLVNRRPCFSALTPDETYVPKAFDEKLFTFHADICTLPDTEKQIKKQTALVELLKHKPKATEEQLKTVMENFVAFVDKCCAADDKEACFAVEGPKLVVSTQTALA

SMILES | φX174 LRV (neutral virus φX174 [1]; 0 mM NaCl) | φX174 LRV (neutral virus φX174 [1]; 50 mM NaCl) | φX174 LRV (neutral virus φX174 [1]; 150 mM NaCl) | viral clearance (LRV) of φX174 after adding the basic protein (neutral virus φX174 [2]) | charge at neutral pH [3] | BSA Static Capacity ([4]; 0 mM NaCl) [mg/m^2] | BSA Static Capacity ([4]; 50 mM NaCl) [mg/m^2] | BSA Static Capacity ([4]; 150 mM NaCl) [mg/m^2] | dynamic binding capacity greater than the average of the five best non-aromatic anion-exchange ligands [5] [%] | dynamic binding capacity relative to the Q ligand [5] [times] | pKa [3] | φX174 clearance (LRV) in the presence of salt (neutral virus φX174 [1]; in the presence of salt (50 and 150 mM)) | salt tolerance of viral clearance (neutral virus φX174 [1]; moderate salt concentration) | viral clearance of φX174 (LRV) (φX174; 0 mM salt) | viral clearance of φX174 (LRV) (φX174; 0 mM salt, listed as “MUSTANG”® Q-brand adsorptive ligand) | viral clearance of φX174 (LRV) (φX174; 50 mM salt) | viral clearance of φX174 (LRV) (φX174; 50 mM salt, listed as “MUSTANG”® Q-brand adsorptive ligand)
N=C(N)NCCCCN [AGM, Agmatine] | 5.5 | 5.5 | 5.9 | ≈ 6.0 | positive charge | 1000 | 319 | 116 | – | – | – | – | – | – | – | – | –
NCCN(CCN)CCN [TAEA, tris(2-aminoethyl)amine] | 7.6 | 5.8 | 5.1 | – | – | – | – | – | – | – | – | – | – | – | – | – | –
N[C@H](CO)Cc1ccc(O)cc1 [TYR, Tyrosinol] | 6.4 | 2.7 | 0.9 | – | positively charged | 638 | 284 | 137 | 63 | 36 | 10.8 | – | – | – | – | – | –
NCC(O)c1ccc(O)cc1 (stereo not shown) [OCT, Octopamine] | 5.4 | 1.1 | 0.7 | – | – | 280 | 290 | 250 | – | – | – | – | – | – | – | – | –
Nc1nc2ccccc2[nH]1 [ABI, 2-aminobenzimidazole] | 5.4 | 1.8 | 1.0 | – | – | 414 | 204 | 108 | – | – | – | – | – | – | – | – | –
N[C@H](CO)Cc1ccccc1 [PHA, Phenylalaninol] | 2.8 | 0.1 | 0.0 | – | – | 330 | 46 | 10 | – | – | – | – | – | – | – | – | –
N[C@H](CO)Cc1c[nH]c2ccccc12 [TRP, Tryptophanol] | 5.4 | 1.1 | 1.0 | – | – | 668 | 297 | 131 | – | – | – | – | – | – | – | – | –
C[N+](C)(C)CCN.[Cl-] [AETMA, 2-aminoethyltrimethylammonium chloride, reference compound] | 6.6 | 0.1 | 0.1 | – | – | 551 | 42 | 10 | – | – | >12 | ≈ 0.1 | not salt tolerant | six | 6 | 1 | less than 1 LRV
NCC(O)CN [DHP, 1,3-diamino-2-hydroxypropane] | 5.4 | 2.1 | 0.1 | – | – | 946 | 392 | 85 | – | – | – | – | – | – | – | – | –
